Reference: PubChem BioAssay AID651630 (Sanford-Burnham Center for Chemical Genomics, 2012)
Activity calls are given as the source filed them.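 The calls were made as follows: active = lipid-stain IC50 at or below a set limit, with nuclear-stain toxicity IC50 at least five times higher; inactive = the rest.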

Legend:
DAPI = assay: TAG lipid buildup inhibition with viability readout – cell-based, panel, Nile Red and DAPI fluorescence, H9c2, dose response (AID 651630); settings: H9c2 cells, DAPI nuclear fluorescence (cytotoxicity counter-readout), oleic acid;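 also: cells exposed to compound overnight before fixation and staining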
TAG = assay: as above; settings: H9c2 cells, Nile Red TAG fluorescence, oleic acid

| Structure (SMILES) | IC50 cytotoxicity (DAPI nuclear signal decrease) (DAPI; run 1) | IC50 cytotoxicity (DAPI nuclear signal decrease) (DAPI; run 2) | IC50 (TAG; mean of runs) | IC50 (TAG; run 1) | IC50 (TAG; run 2) | IC50 cytotoxicity (DAPI nuclear signal decrease) (DAPI; mean of runs) |
| --- | --- | --- | --- | --- | --- | --- |
| N#CC(C#N)=c1ccc2c(c1)N1C(c3ccccc3)=CC(c3ccccc3)C3CCCCC31N=2 (stereo not drawn) | > 25 µM | > 25 µM | 1.92 µM | 1.59 µM | 2.25 µM |  |
| Cc1ccc(NC(=O)CSc2nc3ccc(Nc4nc(N5CCOCC5)nc(N5CCOCC5)n4)cc3s2)cc1 | > 25 µM | > 25 µM | 3.8 µM | 4.85 µM | 2.76 µM |  |
| CCC(C)NCCOCCOc1ccc(Cl)c2ccccc12 (stereo not drawn) | > 25 µM | > 25 µM |  | > 25 µM | 17.7 µM | > 25 µM (inactive) |
| COc1ccc(CNC(=O)C[C@H]2C[C@H](C(=O)N3CCCCC3)[C@@]3(CCc4ccccc4)c4[nH]c5ccc(Cl)cc5c4CCN3C2=O)cc1OC | > 25 µM | > 25 µM | 10 µM | 9.61 µM | 10.4 µM | > 25 µM (inactive) |
| COC(=O)Nc1nc2ccc(Sc3ccccc3)cc2[nH]1 | > 25 µM | > 25 µM | > 25 µM (inactive) | > 25 µM | > 25 µM | > 25 µM (inactive) |
| O=C(Cn1cc[n+](CC(=O)c2ccc(Cl)cc2Cl)c1)c1ccc(Cl)cc1Cl | > 25 µM | > 25 µM |  | > 25 µM | 20.9 µM | > 25 µM (inactive) |
| COc1ccc(NC(=O)C2(C)Cc3c(-c4cccc(C(N)=O)c4)ccnc3O2)cn1 (stereo not drawn) | > 25 µM | > 25 µM | 18.5 µM (inactive) | 18 µM | 18.9 µM | > 25 µM (inactive) |
| Cc1cc(C)c2nc(-c3ccncc3)cc(C(=O)N3CCN(Cc4ccccc4Cl)CC3)c2c1 | > 25 µM | > 25 µM | 12.1 µM | 14.2 µM | 10.1 µM | > 25 µM (inactive) |
| CC(C)(C)OC(=O)[C@H](Cc1ccccc1)NC(=O)c1ncn2c1c(=O)[nH]c1ccc(Br)cc12 | > 25 µM | > 25 µM | 11.8 µM | 12 µM | 11.6 µM | > 25 µM (inactive) |
| CN(C)CCCn1c(SCC(=O)Nc2nc(-c3cccc(Br)c3)cs2)nc2ccccc2c1=O | > 25 µM | > 25 µM | 9.78 µM | 10.1 µM | 9.46 µM | > 25 µM (inactive) |
| C[C@H](O)[C@@H]1CN2CCc3c([nH]c4ccc(-c5ccc6c(c5)OCO6)cc34)[C@@H]2C[C@@H]1N(C)C(=O)Nc1cc(Cl)cc(Cl)c1 | > 25 µM | > 25 µM | 18.2 µM (inactive) | 11.9 µM | 24.5 µM | > 25 µM (inactive) |
| CCCCCCCC(=O)Nc1cc(C(=O)NCCC)ccc1N1CCC2(CC1)CC(c1cccc(Br)c1)=NO2 | > 25 µM | > 25 µM | 15.2 µM (inactive) | 11.8 µM | 18.6 µM | > 25 µM (inactive) |
| Cc1ccc(Cn2c(C(C)Nc3nc(-c4ccc(Cl)c([N+](=O)[O-])c4)cs3)nc3cc(C(F)(F)F)ccc32)cc1 (stereo not drawn) | > 25 µM | 7.97 µM | 8.37 µM | 6.7 µM | 10 µM |  |
